From BigSolDB 2.1

CS(=O)(=O)c1ccc([C@@H](O)[C@@H](CF)NC(=O)C(Cl)Cl)cc1
Conditions | solubility (mole fraction)
in THF, 279.65 K | 0.0293
in THF, 284.55 K | 0.0317
in THF, 289.35 K | 0.0342
in THF, 294.5 K | 0.0374
in THF, 297.65 K | 0.0398
in acetone, 279.25 K | 0.0261
in acetone, 284.35 K | 0.0294
in acetone, 289.1 K | 0.0327
in acetone, 294.45 K | 0.0368
in acetone, 297.75 K | 0.0396
in ethanol, 278.55 K | 0.00126
in ethanol, 283.45 K | 0.00153
in ethanol, 288.8 K | 0.00212
in ethanol, 293.7 K | 0.00259
in ethanol, 298.45 K | 0.00315
in methanol, 278.55 K | 0.00408
in methanol, 283.5 K | 0.00488
in methanol, 288.85 K | 0.00598
in methanol, 293.8 K | 0.00724
in methanol, 298.65 K | 0.00878
in n-propanol, 278.35 K | 0.0008
in n-propanol, 284.05 K | 0.00106
in n-propanol, 289 K | 0.00134
in n-propanol, 293.5 K | 0.00165
in n-propanol, 298.65 K | 0.00211
in water, 278.8 K | 2.48e-05
in water, 283.85 K | 2.86e-05
in water, 289.1 K | 3.62e-05
in water, 293.95 K | 4.64e-05
in water, 298.7 K | 5.49e-05
